# Patent US20240246916A1, “7-NITRO-8-HYDROXYQUINOLINE DERIVATIVES, PREPARATION METHOD THEREFORE AND MEDICAL USE THEREOF” (Jiangsu Yahong Meditech Co., Ltd., priority 2021, published 2024)
# Key:
# Format in all cases: cell-based
# [1] = tested on: Endothelial cell line HUVEC; assay: Inhibitory activity on cells, CellTiter-Glo viability, HUVEC; details: Homo sapiens, 72 hours treatment
# Experimental: (§1) HUVEC (purchased from Allcells Biological Technology (Shanghai) Co., Ltd.); UM-UC-3 (ATCC); LNCaP (ATCC); RM-1 (purchased from Nanjing Cobioer Biosciences Co., Ltd.) (1) On the first day, the cells were seeded in a 96-well plate, and the previous medium was poured off. 5 mL of DPBS was added to wash the cells, and then removed by a pipette and discarded. Then, 1 mL of trypsin (0.25%) was added, and the plate was placed in a cell culture incubator at 37 °C, 5% CO2 for digestion, and taken out after about 2 to 5 minutes. New corresponding medium was added, and pipetted to resuspend the cells evenly, and the cells were then counted with an automated cell counter. Regarding HUVEC, the medium used was endothelial cell complete medium; regarding UM-UC-3, the medium used was 89 v % EMEM+10 v % fetal bovine serum+1 v % penicillin-streptomycin double anti-body; regarding LNcaP, the medium used was 89 v % RPM11640+10 v % fetal bovine serum+1 v % penicillin-streptomycin double anti-body; and regarding RM1, the medium used was 89 v % DMEM+10 v % fetal bovine serum+1 v % penicillin-streptomycin double anti-body. (2) HUVEC cells were seeded in columns 1 to 11 of a 96-well plate (Corning, Cat. No. 3610) at a density of 2000 cells per well in 100 μL of medium, and the medium free of cell was added to the wells of column 12. The other three types of cells were also seeded, wherein UM-UC-3 and RM-1 cells were seeded at a density of 3000 cells per well, and LNCap cells were seeded at a density of 5000 cells per well. Then, the plate was placed in an incubator at 37° C., 5% CO2 for 24 hours. (3) On the second day, the compounds of the present invention and the reference drug nitroxoline (obtained according to the preparation method disclosed in the prior art) were diluted in gradient (2.5 folds, started at 100 μmol) to obtain 8 dose points (there were a total of 8 columns of wells; the first column of wells had the highest concentration, the concentration decreased in turn, and the last column of wells had the lowest concentration). 10 μL of the compound diluted in gradient was added to the 100 μL of cells in column 1 to column 10 with an 8-channel pipette. 10 μL of the corresponding medium containing 0.33 v % DMSO was added to column 11 and column 12. The plate was incubated in an incubator at 37° C., 5% CO2 for 72 hours (note: column 11 was used as MAX well with cells and no compounds; and column 12 was used as MIN well with no cells and no compounds). (4) After treating with the compounds of the present invention for 72 hours, the cell viability detection reagents in the above CellTiter-Glo® assay kit were added to the 96-well plate at 50 μL per well according to the instructions. The plate was shaken on a shaker in the dark for 5 to 10 minutes, and then the cell activity was determined by a multifunctional microplate reader. Finally, the growth inhibition of the compounds of the present invention on the cells was plotted by XLFIT 5.3 software, and the IC50 values of the compounds of the present invention were calculated.
# [2] = tested on: Bladder cancer cell line UM-UC-3; assay: Inhibitory activity on cancer cells, CellTiter-Glo viability, UM-UC-3; details: Homo sapiens, UMUC3, 72 hours treatment
# Experimental: as §1
# [3] = tested on: Prostate cancer cell line LNcaP; assay: Inhibitory activity on cancer cells, CellTiter-Glo viability, LNcaP; details: Homo sapiens, 72 hours treatment
# Experimental: as §1
# [4] = tested on: Escherichia coli (carbapenem-resistant clinical isolate; ATCC25922); assay: MIC by micro broth dilution (CLSI), Escherichia coli; details: for MIC50 / MIC90: ATCC25922, Clinical strain; for MIC50 / MIC90 / MIC: Escherichia coli; for MIC50: read-out: MIC50; for MIC90: read-out: MIC90; for MIC: Standard strain ATCC25922, read-out: MIC
# Text: (§2) The test bacteria were one strain of clinically isolated carbapenem-resistant Escherichia coli, two strains of carbapenem-resistant Acinetobacter baumannii, two strains of methicillin-resistant Staphylococcus aureus, two strains of sensitive Staphylococcus aureus, and 7 strains of Klebsiella pneumoniae. Duplicate strains isolated from the same patient were eliminated. There were also […] quality control strains Escherichia coli ATCC25922, Acinetobacter baumannii ATCC19606, Staphylococcus aureus ATCC29213, Klebsiella pneumoniae ATCC BAA-1705, ATCC 43816, ATCC BAA-2472, ATCC-BAA-1898, ATCC-BAA-1899, NCTC 13440 and ATCC-BAA-2470. There were 24 strains in total.
# (§3) According to the recommendations of relevant documents of the American Clinical and Laboratory Standards Institute (CLSI), the micro broth dilution method was used to determine the MIC of the compounds of the present invention against clinically isolated strains. • 3.1 Formulation of antibacterial drug: All the compounds of the present invention were dissolved in DMSO. The drug concentration range was 128 mg/L to 0.06 mg/L. • 3.2 Culture medium: The drug susceptibility test used cation adjusted Mueller-Hinton broth (CAMHB). • 3.3 Amount of inoculum: The test bacteria cultured overnight were adjusted to 0.5 McFarland turbidity by the direct colony suspension method, and diluted 100 folds, the final inoculum amount was 10^5 CFU/mL. • 3.4 Culture conditions: The test bacteria were cultured at 35±2° C. for 20 hours in air.
# (§4) The drug susceptibility test results were interpretated by reference to CLSI 2019 M100 29th edition criteria.
# (§5) The quality control strains of the drug susceptibility test were Escherichia coli ATCC 25922, Acinetobacter baumannii ATCC 19606, Staphylococcus aureus ATCC 29213, Klebsiella pneumoniae ATCC BAA-1705, ATCC 43816, ATCC BAA-2472, ATCC-BAA-1898, ATCC-BAA-1899, NCTC 13440 and ATCC-BAA-2470.
# (§6) The results of drug susceptibility test were statistically analyzed by WHONET software (version 5.6).
# [5] = tested on: Acinetobacter baumannii (carbapenem-resistant clinical isolates; ATCC19606); assay: MIC by micro broth dilution (CLSI), Acinetobacter baumannii; details: Acinetobacter baumannii; for MIC50 / MIC90: ATCC19606, Clinical strain; for MIC50: read-out: MIC50; for MIC90: read-out: MIC90; for MIC: Standard strain ATCC19606, read-out: MIC
# Text: as §2, §3, §4, §5, §6
# [6] = tested on: Staphylococcus aureus (methicillin-resistant and sensitive clinical isolates; ATCC29213); assay: MIC by micro broth dilution (CLSI), Staphylococcus aureus; details: for MIC50 / MIC90: Clinical strain; for MIC50: read-out: MIC50; for MIC90: read-out: MIC90; for MIC: Standard strain ATCC29213, read-out: MIC
# Text: as §2, §3, §4, §5, §6
IC50 [2] [µM],IC50 [3] [µM],MIC50 [4] [mg/L],MIC90 [4] [mg/L],MIC [4] [mg/L],MIC50 [5] [mg/L],MIC90 [5] [mg/L],MIC [5] [mg/L],MIC50 [6] [mg/L],MIC90 [6] [mg/L],MIC [6] [mg/L],SMILES,IC50 [1] [µM],inhibitory effect against Escherichia coli compared with the reference drug nitroxoline ([4]; MIC comparison)
8.9,3.9,16,16,32,8,8,32,8,8,8,"O=[N+]([O-])c1ccc2c(Br)ccnc2c1O [Example 16, 4-Bromo-7-nitroquinolin-8-ol]",8.1,
16.9,23.6,64,64,128,128,128,128,128,128,128,"CN(C)c1ccnc2c(O)c([N+](=O)[O-])ccc12 [Example 17, 4-(Dimethylamino)-7-nitroquinolin-8-ol]",27.4,

# Further lines, the compound ahead of its results:
SMILES,IC50 [2] [µM],IC50 [3] [µM],MIC50 [4] [mg/L],MIC90 [4] [mg/L],MIC [4] [mg/L],MIC50 [5] [mg/L],MIC90 [5] [mg/L],MIC [5] [mg/L],MIC50 [6] [mg/L],MIC90 [6] [mg/L],MIC [6] [mg/L],IC50 [1] [µM],inhibitory effect against Escherichia coli compared with the reference drug nitroxoline ([4]; MIC comparison)
"O=[N+]([O-])c1ccc2c(Cl)ccnc2c1O [Example 12, 4-Chloro-7-nitroquinolin-8-ol]",7.5,4.1,4,4,4,2,4,4,2,2,2,7.5,comparable to that of the reference drug nitroxoline
"O=[N+]([O-])c1ccc2c(N3CCCC3)ccnc2c1O [Example 13, 7-Nitro-4-(pyrrolidin-1-yl)quinolin-8-ol]",38,35.4,> 128,> 128,> 128,> 128,> 128,> 128,> 128,> 128,> 128,> 50,
"O=[N+]([O-])c1ccc2c(N3CCOCC3)ccnc2c1O [Example 14, 4-Morpholino-7-nitroquinolin-8-ol]",6.1,8.7,128,128,> 128,128,> 128,> 128,128,128,128,10.9,
"O=[N+]([O-])c1ccc2c(-n3ccnc3)ccnc2c1O [Example 15, 4-(1H-Imidazol-1-yl)-7-nitroquinolin-8-ol]",36.2,35.2,128,128,> 128,> 128,> 128,> 128,64,128,128,32.3,
